Measurements: patent US11707479B2, “Combination formulation of two antiviral compounds” (priority 2013, dated 2023)
Read-outs that look alike come from different tables or passages of the source. One block for each compound: values may come before it.

Assays:
[1] = PK drug-drug interaction between SOF and Compound I; type: in vivo, human; settings: for AUCinf % GLSM Ratio (SOF + Compound I/SOF) (90% CI) / AUClast % GLSM Ratio (SOF + Compound I/SOF) (90% CI) / Cmax % GLSM Ratio (SOF + Compound I/SOF) (90% CI): SOF 400 mg + Compound I 150 mg vs SOF 400 mg
HCV RNA = test: Emax PK/PD modeling of sofosbuvir dose; set-up: species or system Hepatitis C virus; settings: 400 mg sofosbuvir dose, Emax model
Experimental: The sofosbuvir dose selected for the tablet formulation is 400 mg once daily. Support for the 400 mg sofosbuvir dose can be derived from Emax PK/PD modeling with early virological and human exposure data which also supports the selection of a 400 mg sofosbuvir dose over others tested.
(§1) The mean sofosbuvir major metabolite AUCtau for the 400 mg sofosbuvir dose is associated with approximately 77% of the maximal HCV RNA change from baseline achievable as determined by this model, a value which is on the cusp of the plateau of the exposure-response sigmoidal curve. In a sigmoidal Emax model, there is a relatively linear exposure-response relationship in the 20 to 80% maximal effect range. Therefore, given that sofosbuvir exposure with 200 mg tablets appears dose-proportional with single doses up to 1200 mg, doses below 400 mg are expected to yield considerable reductions in the magnitude of HCV RNA change from baseline.

genotype 1 HCV = test: Sofosbuvir 400 mg vs 200 mg once daily with additional HCV therapeutics for 24 weeks; type: in vivo, Hepatitis C virus
Experimental: (§2) Safety and tolerability appeared similar across both dose levels. In addition, when sofosbuvir 400 mg once daily plus other HCV therapeutics were given to genotype 2 or 3 HCV infected patients, 100% SVR24 was observed.

[2] = Sofosbuvir single dose exposure, 200 mg tablets; type: in vivo, human; settings: single doses up to 1200 mg
Experimental: as §1

genotype 2 or 3 HCV = test: Sofosbuvir 400 mg once daily plus other HCV therapeutics, SVR24; type: in vivo, Hepatitis C virus; settings: genotype 2 or 3 HCV infected patients
Experimental: as §2

[3] = Chemical stability in ethanolic feed solution; type: physicochemical
genotype 1-6 HCV = test: Compound I 3-day monotherapy study; type: in vivo, Hepatitis C virus
[4] = Spray dry feed solution solvent evaluation: solubility; type: physicochemical; settings: Ethanol, methanol, acetone, and dichloromethane
Experimental: The feed solution was initially evaluated for appropriate solvent with regard to solubility, stability, and viscosity. […] Ethanol and methanol-based feed stocks were assessed for preparation ease and spray dried at a range of inlet and outlet temperatures to assess the robustness of the spray dry process. Both solvents gave rapid dissolution of Compound I and copovidone.

[5] = Single and multiple oral doses of Compound I: pharmacokinetics; settings: human, in vivo
[6] = Food effect on Compound I solid dispersion as single agent; type: in vivo, human; settings: Compound I 100 mg
[7] = SOF 400 mg + Compound I 150 mg, GLSM
[8] = SOF 400 mg single dose alone, GLSM
[9] = human, in vivo, SOF 400 mg + Compound I 150 mg, GLSM
[10] = SOF 400 mg + Compound I 150 mg vs Compound I 150 mg

AUCinf % GLSM Ratio (SOF + Compound I/SOF) (90% CI) [1]: 116.32 (110.99, 121.90) %
AUClast % GLSM Ratio (SOF + Compound I/SOF) (90% CI) [1]: 112.86 (107.90, 118.05) %
Cmax % GLSM Ratio (SOF + Compound I/SOF) (90% CI) [1]: 64.17 (58.45, 70.44) %
AUCinf [1, 7]: 13,774.96 ng · h/mL
AUClast [1, 7]: 12,610.86 ng · h/mL
Cmax [1, 7]: 693.62 ng/mL
AUCinf [1, 8]: 11,842.52 ng · h/mL
AUClast [1, 8]: 11,173.87 ng · h/mL
Cmax [1, 8]: 1080.97 ng/mL
SMILES: C[C@@]1(F)[C@H](O)[C@@H](CO)O[C@H]1n1ccc(=O)[nH]c1=O [SOF metabolite II]

SMILES: CC(C)OC(=O)[C@H](C)N[P@](=O)(OC[C@H]1O[C@@H](n2ccc(=O)[nH]c2=O)[C@](C)(F)[C@@H]1O)Oc1ccccc1 [sofosbuvir, (S)-isopropyl 2-(((S)-(((2R,3R,4R,5R)-5-(2,4-dioxo-3,4-dihydropyrimidin-1(2H)-yl)-4-fluoro-3-hydroxy-4-methyltetrahydrofuran-2-yl)methoxy)(phenoxy)phosphoryl)amino)propanoate, reference compound]
AUCinf % GLSM Ratio (SOF + Compound I/SOF) (90% CI) [1]: 237.77 (214.27, 263.85) %
AUClast % GLSM Ratio (SOF + Compound I/SOF) (90% CI) [1]: 238.10 (214.62, 264.16) %
Cmax % GLSM Ratio (SOF + Compound I/SOF) (90% CI) [1]: 181.06 (149.43, 219.38) %
AUCinf [1, 8]: 1159.50 ng·h/mL
increase in AUC when SOF coadministered with Compound I [1]: ~2.4 fold
increase in Cmax when SOF coadministered with Compound I [1]: approximately 1.8 fold
AUC(0-inf) [1, 9]: 2760 ng·h/mL
AUC(0-t) [1, 9]: 2750 ng·h/mL
Cmax ([1]; human, in vivo, SOF 400 mg + Compound I 150 mg, GLSM, read-out: Cmax): 1590 ng/mL
AUC(0-t) ([1]; human, in vivo, SOF 400 mg single dose alone, GLSM): 1150 ng·h/mL
Cmax ([1]; human, in vivo, SOF 400 mg single dose alone, GLSM, read-out: Cmax): 880 ng/mL
fraction of the maximal HCV RNA change from baseline achievable, associated with mean major metabolite AUCtau (HCV RNA): approximately 77%
Safety and tolerability across both dose levels (genotype 1 HCV; 400 mg vs 200 mg once daily): similar
SVR rates, 400 mg once daily compared to 200 mg once daily (genotype 1 HCV; genotype 1 HCV infected patients, with additional HCV therapeutics for 24 weeks): higher SVR rates
dose proportionality of exposure [2]: dose-proportional
SVR24 (genotype 2 or 3 HCV): 100%

AUCinf % GLSM Ratio (SOF + Compound I/SOF) (90% CI) [1]: 179.42 (165.03, 195.06) %
AUClast % GLSM Ratio (SOF + Compound I/SOF) (90% CI) [1]: 182.35 (167.52, 198.50) %
Cmax % GLSM Ratio (SOF + Compound I/SOF) (90% CI) [1]: 161.68 (145.27, 179.94) %
AUCinf [1, 7]: 3455.70 ng·h/mL
AUClast [1, 7]: 3394.32 ng·h/mL
Cmax [1, 7]: 736.88 ng/mL
AUCinf [1, 8]: 1926.09 ng·h/mL
AUClast [1, 8]: 1861.41 ng·h/mL
Cmax [1, 8]: 455.77 ng/mL
increase in AUC when SOF coadministered with Compound I [1]: approximately 1.8 fold
increase in Cmax when SOF coadministered with Compound I [1]: approximately 1.6 fold
SMILES: C[C@H](NP(=O)(O)OC[C@H]1O[C@@H](n2ccc(=O)[nH]c2=O)[C@](C)(F)[C@@H]1O)C(=O)O [SOF metabolite I]

SMILES: COC[C@H]1C[C@@H](c2ncc(-c3ccc4c(c3)COc3cc5c(ccc6nc([C@@H]7CC[C@H](C)N7C(=O)[C@@H](NC(=O)OC)C(C)C)[nH]c65)cc3-4)[nH]2)N(C(=O)[C@H](NC(=O)OC)c2ccccc2)C1 [Compound I, methyl {(2S)-1-[(2S,5S)-2-(9-{2-[(2S,4S)-1-{(2R)-2-[(methoxycarbonyl)amino]-2-phenylacetyl}-4-(methoxymethyl)pyrrolidin-2-yl]-1H-imidazol-5-yl}-1,11-dihydroisochromeno[4′,3′ 6,7]naphtho[1,2-d]imidazol-2-yl)-5-methylpyrrolidin-1-yl]-3-methyl-1-oxobutan-2-yl}carbamate]
Ctau ([1]; Compound I 150 mg multiple doses alone, GLSM): 101.09 ng/mL
AUCtau % GLSM Ratio (SOF + Compound I/Compound I) (90% CI) [1, 10]: 111.71 (107.54, 116.04) %
Cmax % GLSM Ratio (SOF + Compound I/Compound I) (90% CI) [1, 10]: 105.94 (101.86, 110.20) %
Ctau % GLSM Ratio (SOF + Compound I/Compound I) (90% CI) [1, 10]: 117.61 (111.94, 123.57) %
Ctau [1, 7]: 118.90 ng/mL
AUC ([1]; human, plasma, oral, Compound I 150 mg multiple doses alone, GLSM): 7280 ng·h/mL
Cmax ([1]; human, plasma, oral, Compound I 150 mg multiple doses alone, GLSM, read-out: Cmax): 932 ng/mL
AUC ([1]; human, plasma, oral, SOF 400 mg + Compound I 150 mg, GLSM): 8140 ng·h/mL
Cmax ([1]; human, plasma, oral, SOF 400 mg + Compound I 150 mg, GLSM, read-out: Cmax): 988 ng/mL
chemical stability [3]: good chemical stability
activity against genotype 1-6 HCV (genotype 1-6 HCV): potent activity
solubility in feed solvent [4]: excellent solubility
CL/F ([5]; 5 mg): 58,398.0 mL/h
CL/F ([5]; 50 mg): 19,188.4 mL/h
CL/F ([5]; 100 mg): 24,617.9 mL/h
CL/F ([5]; 450 mg): 53,676.4 mL/h
AUCinf % GLSM Ratio (Fed/Fasted) ([6]; HFM): 86.30%
AUClast % GLSM Ratio (Fed/Fasted) ([6]; HFM): 86.02%
Cmax % GLSM Ratio (Fed/Fasted) ([6]; HFM): 75.02%
AUCinf % GLSM Ratio (Fed/Fasted) ([6]; Light Breakfast): 124.72%
AUClast % GLSM Ratio (Fed/Fasted) ([6]; Light Breakfast): 124.84%
Cmax % GLSM Ratio (Fed/Fasted) ([6]; Light Breakfast): 134.89%
